This passage reports IC50 and DC50 results from patent US20240059711A1, “Cereblon Ligands and Uses Thereof” (REGENTS OF THE UNIVERSITY OF MICHIGAN, priority 2022, published 2024).

SMILES strings stand for the structures.

GST-tagged wild-type human CRBN protein, sequence (Q96SW2 whole entry): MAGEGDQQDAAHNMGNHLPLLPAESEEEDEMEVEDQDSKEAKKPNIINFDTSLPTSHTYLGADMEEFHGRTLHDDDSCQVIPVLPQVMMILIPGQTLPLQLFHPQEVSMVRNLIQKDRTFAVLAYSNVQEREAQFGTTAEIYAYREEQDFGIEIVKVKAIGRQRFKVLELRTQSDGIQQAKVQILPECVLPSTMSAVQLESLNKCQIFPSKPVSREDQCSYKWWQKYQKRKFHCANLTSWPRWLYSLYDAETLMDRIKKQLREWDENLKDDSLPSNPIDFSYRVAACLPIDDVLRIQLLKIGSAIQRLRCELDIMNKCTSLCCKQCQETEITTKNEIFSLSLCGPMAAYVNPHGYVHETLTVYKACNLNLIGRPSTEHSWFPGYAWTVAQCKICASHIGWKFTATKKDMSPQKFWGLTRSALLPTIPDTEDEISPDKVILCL

The first assay deals with GST-tagged wild-type human CRBN protein (Homo sapiens (Human), UniProt Q96SW2). In words: Cereblon binding assay (CRBN TR-FRET, Cisbio Cereblon Binding Kit). Conditions: XL665-labelled Thalidomide tracer, about 3 hours at room temperature. The protocol:
The binding to cereblon (CRBN) was determined using the Cereblon Binding Kit (Cisbio, #64BDCRBNPEG) following the manufacturer's instruction. Briefly, serially diluted compounds were incubated with GST-tagged wild-type human CRBN protein, XL665-labelled Thalidomide and Europium Cryptate labelled GST antibody at room temperature for about 3 hours. Time Resolved Fluorescence Resonance Energy Transfer (TR-FRET) measurements were acquired on a CALRIOstar plate reader with MARS data analysis software (BMG Labtech), with the following settings: 665/10 nm and 620/10 nm emission, 60 μs delay and 400 μs integration. The TR-FRET ratio was taken as the 665/620 nm intensity ratio.
(Time-resolved FRET reads energy transfer from a long-lived donor to a nearby acceptor.)
For the compound `O=C1CC[C@H](N2Cc3c(ccc4c3OCC(COCc3ccccc3)O4)C2=O)C(=O)N1` (stereo in doubt) [Compound B1, (S)-3-((S)-3-((benzyloxy)methyl)-7-oxo-2,3,7,9-tetrahydro-8H-[1,4]dioxino[2,3-e]isoindol-8-yl)piperidine-2,6-dione], the IC50 is 300 nM. Regarding `O=C1CC[C@H](N2Cc3c(ccc4c3OCC(CO)O4)C2=O)C(=O)N1` (stereo in doubt) [Compound B2, (S)-3-((S)-3-(hydroxymethyl)-7-oxo-2,3,7,9-tetrahydro-8H-[1,4]dioxino[2,3-e]isoindol-8-yl)piperidine-2,6-dione], the IC50 came to 410 nM.

Take `O=C1CC[C@H](N2Cc3c(ccc4c3OC[C@H](COCc3ccccc3)O4)C2=O)C(=O)N1` [Compound B3, (S)-3-((S)-3-((benzyloxy)methyl)-7-oxo-2,3,7,9-tetrahydro-8H-[1,4]dioxino[2,3-e]isoindol-8-yl)piperidine-2,6-dione]: the IC50 came to 120 nM. The compound `O=C1CC[C@H](N2Cc3c(ccc4c3OC[C@H](CO)O4)C2=O)C(=O)N1` [Compound B4, (S)-3-((S)-3-(hydroxymethyl)-7-oxo-2,3,7,9-tetrahydro-8H-[1,4]dioxino[2,3-e]isoindol-8-yl)piperidine-2,6-dione] yielded an IC50 of 310 nM. This IC50 lies about 2.6-fold higher than the previous one. In turn, `O=C1CCC(N2Cc3c(ccc4c3OC[C@H](COCc3ccccc3)N4)C2=O)C(=O)N1` (stereo partly drawn) [Compound B5, 3-((S)-3-((benzyloxy)methyl)-7-oxo-3,4,7,9-tetrahydro-[1,4]oxazino[2,3-e]isoindol-8(2H)-yl)piperidine-2,6-dione] gave an IC50 of 120 nM.

Consider `O=C1CC[C@H](N2Cc3c(ccc4c3O[C@@H](CO)CO4)C2=O)C(=O)N1` [Compound B6, (S)-3-((S)-2-(hydroxymethyl)-7-oxo-2,3,7,9-tetrahydro-8H-[1,4]dioxino[2,3-e]isoindol-8-yl)piperidine-2,6-dione], for which the half-inhibitory concentration (IC50) was 540 nM. For the compound `O=C1CC[C@H](N2Cc3c(ccc4c3O[C@H](CO)CO4)C2=O)C(=O)N1` [Compound B7, (S)-3-((R)-2-(hydroxymethyl)-7-oxo-2,3,7,9-tetrahydro-8H-[1,4]dioxino[2,3-e]isoindol-8-yl)piperidine-2,6-dione], the IC50 is 510 nM. This IC50 and that of the compound before are within 1.5-fold of each other. `O=C1CCC(N2Cc3c(ccc4c3O[C@H](CO)CO4)C2=O)C(=O)N1` (stereo partly drawn) [Compound B8, 3-((R)-2-(hydroxymethyl)-7-oxo-2,3,7,9-tetrahydro-8H-[1,4]dioxino[2,3-e]isoindol-8-yl)piperidine-2,6-dione] yielded an IC50 of 1000 nM. Against the preceding compound, the IC50 is about 2-fold higher. Regarding `O=C1CC[C@H](N2Cc3cc4c(cc3C2=O)OC[C@H](CO)O4)C(=O)N1` [Compound B11, (S)-3-((S)-2-(hydroxymethyl)-6-oxo-2,3,6,8-tetrahydro-7H-[1,4]dioxino[2,3-f]isoindol-7-yl)piperidine-2,6-dione], the IC50 came to 3100 nM. Consider `O=C1CC[C@H](N2Cc3cc4c(cc3C2=O)OC[C@H](COCc2ccccc2)O4)C(=O)N1` [Compound B12, (S)-3-((S)-2-((benzyloxy)methyl)-6-oxo-2,3,6,8-tetrahydro-7H-[1,4]dioxino[2,3-f]isoindol-7-yl)piperidine-2,6-dione], for which the IC50 came out at 3000 nM. `O=C1CCC(N2C(=O)c3cc4c(cc3C2=O)O[C@@H](COCc2ccccc2)CO4)C(=O)N1` (stereo partly drawn) [Compound B13, (2S)-2-((benzyloxy)methyl)-7-(2,6-dioxopiperidin-3-yl)-2,3-dihydro-6H-[1,4]dioxino[2,3-f]isoindole-6,8(7H)-dione] showed an IC50 of 3100 nM. Compound `O=C1CCC(N2C(=O)c3cc4c(cc3C2=O)O[C@@H](COCc2ccccc2)CO4)C(=O)N1` (stereo partly drawn) [Compound B14, (2S)-2-((benzyloxy)methyl)-7-(2,6-dioxopiperidin-3-yl)-2,3-dihydro-6H-[1,4]dioxino[2,3-f]isoindole-6,8(7H)-dione] returned an IC50 of 5160 nM. Compared with the last compound, the IC50 is about 1.7-fold higher. In turn, `O=C1CCC(N2C(=O)c3cc4c(cc3C2=O)OC(CO)CO4)C(=O)N1` (stereo not shown) [Compound B15, 7-(2,6-dioxopiperidin-3-yl)-2-(hydroxymethyl)-2,3-dihydro-6H-[1,4]dioxino[2,3-f]isoindole-6,8(7H)-dione] yielded an IC50 of 7890 nM.

Another assay deals with T47D cell line. In words: Cell growth inhibition in T47D cell line. In kind it is cell-based. The settings on record: Homo sapiens.
The compound `O=C1CC[C@H](N2Cc3c(ccc4c3OC[C@@H](CN3CCC5(CC3)CCN(c3ccc([C@@H]6c7ccc(O)cc7CC[C@@H]6c6ccccc6)cc3)CC5)O4)C2=O)C(=O)N1` [THP-B370] displayed an IC50 of 1 to 10 nM. With `O=C1CC[C@H](N2Cc3c(ccc4c3OC[C@@H](CN3CC5(CCN(c6ccc([C@@H]7c8ccc(O)cc8CC[C@@H]7c7ccccc7)cc6)CC5)C3)O4)C2=O)C(=O)N1` [THP-B375], the IC50 is below 1 nM. With `O=C1CCC(N2Cc3cc4c(cc3C2=O)OC[C@H](CN2CCC3(CC2)CCN(c2ccc([C@@H]5c6ccc(O)cc6CC[C@@H]5c5ccccc5)cc2)CC3)O4)C(=O)N1` (stereo partly drawn) [THP-B391, 3-((S)-2-((9-(4-((1R,2S)-6-hydroxy-2-phenyl-1,2,3,4-tetrahydronaphthalen-1-yl)phenyl)-3,9-diazaspiro[5.5]undecan-3-yl)methyl)-6-oxo-2,3,6,8-tetrahydro-7H-[1,4]dioxino[2,3-f]isoindol-7-yl)piperidine-2,6-dione], the IC50 was in the range of 1 to 10 nM. In turn, `O=C1CC[C@H](N2Cc3c(ccc4c3OC[C@H](CN3CCC5(CC3)CCN(c3ccc([C@@H]6c7ccc(O)cc7CC[C@@H]6c6ccccc6)cc3)CC5)O4)C2=O)C(=O)N1` [THP-B392] yielded an IC50 of 1 to 10 nM. For `O=C1CC[C@H](N2Cc3c(ccc4c3OC[C@H](CN3CC5(CCN(c6ccc([C@@H]7c8ccc(O)cc8CC[C@@H]7c7ccccc7)cc6)CC5)C3)O4)C2=O)C(=O)N1` [THP-B393], the IC50 was below 1 nM.

For a further assay, the target named is ER (Homo sapiens (Human), UniProt P03372). In words: In-Cell Western (ICW) ER degradation assay in MCF-7 and T47D cell lines. In kind it is cell-based. Conditions: ER level by In-Cell Western, 16 hrs treatment; MCF-7 and T47D described, cell line not given. The protocol: Subsequently, cells were blocked with Intercept (PBS) Blocking Buffer (Li-COR, Odyssey Blocking Buffer), and were stained with ER (1:500, Cell signaling) primary antibody for overnight at cold room. • Day 4: Remove the buffer, add IRDye 800CW Goat anti-Rabbit IgG Secondary Antibody (1:2000) and CellTag 700 Stain (1:500) in Intercept (PBS) Blocking Buffer. Finally, cell plate is placed in incubator to dry. Image and signal were captured on Odyssey® DLx Imaging System.
ER, sequence (P03372 whole entry): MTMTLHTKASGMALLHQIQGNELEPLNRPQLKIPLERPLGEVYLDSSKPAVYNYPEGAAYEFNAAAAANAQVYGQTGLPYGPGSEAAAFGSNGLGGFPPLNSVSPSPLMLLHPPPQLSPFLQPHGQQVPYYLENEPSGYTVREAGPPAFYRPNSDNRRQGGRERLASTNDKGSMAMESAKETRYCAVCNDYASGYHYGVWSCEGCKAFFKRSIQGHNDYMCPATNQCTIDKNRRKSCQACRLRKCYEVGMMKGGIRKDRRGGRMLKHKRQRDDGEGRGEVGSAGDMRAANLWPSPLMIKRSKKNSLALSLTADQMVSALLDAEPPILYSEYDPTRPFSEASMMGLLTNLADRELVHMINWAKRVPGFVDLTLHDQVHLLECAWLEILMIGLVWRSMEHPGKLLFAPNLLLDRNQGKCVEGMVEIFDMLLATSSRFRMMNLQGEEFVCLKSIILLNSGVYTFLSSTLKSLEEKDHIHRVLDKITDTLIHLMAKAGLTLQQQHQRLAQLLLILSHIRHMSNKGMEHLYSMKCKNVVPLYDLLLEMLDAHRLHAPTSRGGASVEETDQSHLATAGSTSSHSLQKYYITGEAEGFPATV
In-cell western blot analysis. a. seed cells in black-sided/clear bottom 96- or 384-well plates at 40,000 or 10,000 cells/well, overnight; b. add diluted compounds (final 0.5% DMSO), 16 hours. 16 h later, remove medium, add 100 μL or 25 μL of 3.7-4.0% formaldehyde (PBS:FA=9:1), RT 20 min, no shaking; c. wash with PBS, and permeabilized with 100 μL or 25 μL/well of 1×PBS+0.1% Triton X-100 10 minutes; d. block with 100 μL or 25 μL Licor blocking buffer (Li-Cor), RT 1 h, moderate shaking; d. Add 100 μL or 25 μL of anti-ER (cs-8644, 1:500-1,000)+GAPDH (Millipore MAB374, 1:1000) in Block+0.05% Tween 20. RT 2 h, gentle shaking.
Negative control: cells plus secondary antibodies (no primary antibodies); e. wash ×4 with PBS+0.05-0.1% Tween 20, gentle shaking; f. anti-rabbit-680 and anti-mouse-800 (both 1:1000 in LiCor block+0.05% Tween20, RT 1 h, gentle shaking, no light. LI-COR: 0.2% to reduce background; g. wash ×4 with PBS+0.05% Tween 20, gentle shaking; h. add 100 μL or 25 μL of PBS to each well and read on CLX plate reader. The relative ER percentage in treated cells were obtained by comparing the values of treated wells to those in untreated and DMSO-treated wells as 100%.
With `O=C1CC[C@H](N2Cc3c(ccc4c3OC[C@@H](CN3CCC5(CC3)CCN(c3ccc([C@@H]6c7ccc(O)cc7CC[C@@H]6c6ccccc6)cc3)CC5)O4)C2=O)C(=O)N1` [THP-B370], the DC50 is above 100 nM. Regarding `O=C1CC[C@H](N2Cc3c(ccc4c3OC[C@@H](CN3CC5(CCN(c6ccc([C@@H]7c8ccc(O)cc8CC[C@@H]7c7ccccc7)cc6)CC5)C3)O4)C2=O)C(=O)N1` [THP-B375], the 50% degradation concentration (DC50) was 10 to 100 nM. For the compound `O=C1CC[C@H](N2Cc3c(ccc4c3OC[C@H](CN3CCC5(CC3)CCN(c3ccc([C@@H]6c7ccc(O)cc7CC[C@@H]6c6ccccc6)cc3)CC5)O4)C2=O)C(=O)N1` [THP-B387], the DC50 was above 100 nM. Still for that read-out and setting: in the case of `O=C1CCC(N2Cc3cc4c(cc3C2=O)OC[C@H](CN2CCC3(CC2)CCN(c2ccc([C@@H]5c6ccc(O)cc6CC[C@@H]5c5ccccc5)cc2)CC3)O4)C(=O)N1` (stereo partly drawn) [THP-B391, 3-((S)-2-((9-(4-((1R,2S)-6-hydroxy-2-phenyl-1,2,3,4-tetrahydronaphthalen-1-yl)phenyl)-3,9-diazaspiro[5.5]undecan-3-yl)methyl)-6-oxo-2,3,6,8-tetrahydro-7H-[1,4]dioxino[2,3-f]isoindol-7-yl)piperidine-2,6-dione] it was above 100 nM.

A word on the IC50: it is the concentration that inhibits the measured activity by half. Low readings indicate greater potency, high ones weaker potency. The DC50 is the concentration giving 50% degradation.
